# The source made the active and inactive calls.
# Key:
# [1] = growth suppression of beta-catenin-knockout colon cells, dose response, cell-based, HCT116, human colon tumor (AID 1045); format: functional;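 also: HCT116 colon tumor cells with beta catenin knocked out; cells exposed to compound for 60 hours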
# [2] = growth suppression of PTEN-null colon cells, dose response, cell-based, HCT116 PTEN knockout (AID 1047); format: functional;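 also: HCT116 colon tumor cells with PTEN knocked out; cells exposed to compound for 60 hours before readout; potency for loss of cell viability measured by luminescence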
# [3] = HEp-2 cell cytotoxicity, dose response, cytotoxicity control for RSV inhibitor project, HTS (AID 2410); format: functional; settings: human respiratory syncytial virus
# [4] = HEK293T cytotoxicity, dose response, cytotoxicity control for miR-122 modulator project, cell-based, inhibitor set, cherry-pick, set 2 (AID 720697); format: functional
# Cytochrome P450 2C9 = Cytochrome P450 2C9 (Homo sapiens, UniProt P11712)
# Chain of Cytochrome P450 2C9 (P11712 whole entry): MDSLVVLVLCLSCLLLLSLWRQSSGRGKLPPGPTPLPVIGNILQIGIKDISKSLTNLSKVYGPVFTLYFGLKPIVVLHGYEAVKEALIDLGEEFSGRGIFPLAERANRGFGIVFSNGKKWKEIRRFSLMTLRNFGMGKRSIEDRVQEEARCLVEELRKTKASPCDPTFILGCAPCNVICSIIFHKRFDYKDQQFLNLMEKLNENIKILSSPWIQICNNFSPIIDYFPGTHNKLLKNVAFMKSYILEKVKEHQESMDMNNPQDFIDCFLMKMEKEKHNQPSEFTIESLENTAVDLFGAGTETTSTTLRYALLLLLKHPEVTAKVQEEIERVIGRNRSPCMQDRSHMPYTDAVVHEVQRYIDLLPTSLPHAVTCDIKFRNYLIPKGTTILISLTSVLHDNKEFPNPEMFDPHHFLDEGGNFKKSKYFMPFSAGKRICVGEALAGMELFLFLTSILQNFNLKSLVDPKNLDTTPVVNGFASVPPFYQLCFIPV
# Leucine aminopeptidase = molecular target: T1, Leucine aminopeptidase (Plasmodium falciparum 3D7, UniProt Q8IL11); assay: P. falciparum M17LAP inhibitors, primary screen, biochemical, fluorogenic H-Leu-NHMec substrate, 1536-well (AID 1619); format: functional
# T1 sequence (Q8IL11 whole entry): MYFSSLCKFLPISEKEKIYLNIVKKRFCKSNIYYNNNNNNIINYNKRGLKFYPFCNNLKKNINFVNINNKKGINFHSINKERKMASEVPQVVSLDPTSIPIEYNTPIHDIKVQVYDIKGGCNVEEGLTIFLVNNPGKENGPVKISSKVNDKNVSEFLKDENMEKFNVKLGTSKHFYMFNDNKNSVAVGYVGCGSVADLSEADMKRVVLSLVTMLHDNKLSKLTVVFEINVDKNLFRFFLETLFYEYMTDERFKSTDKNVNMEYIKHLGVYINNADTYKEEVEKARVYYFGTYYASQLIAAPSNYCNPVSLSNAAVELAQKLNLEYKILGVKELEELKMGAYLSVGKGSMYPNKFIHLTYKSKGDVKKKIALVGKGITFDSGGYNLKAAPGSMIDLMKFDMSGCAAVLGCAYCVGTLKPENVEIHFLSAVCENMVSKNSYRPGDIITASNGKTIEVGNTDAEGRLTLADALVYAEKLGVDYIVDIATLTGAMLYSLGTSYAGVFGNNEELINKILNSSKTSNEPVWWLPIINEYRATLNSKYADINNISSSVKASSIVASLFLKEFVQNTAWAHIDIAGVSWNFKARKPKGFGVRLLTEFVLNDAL
# [5] = microbe, parasite or virus in culture; format: functional; settings: Mycobacterium tuberculosis
# [6] = Luminescence Cell-Based Dose Retest to Confirm Inhibitors of Cancer Stem Cells. [Related pubchem assays (depositor defined):AID2717, AID2721]; format: functional; settings: Homo sapiens
# Vero [7] = assay: cells; format: functional; settings: Chlorocebus sabaeus
# Vero [8] = assay: host cell cytotoxicity of antiviral hits, dose response, cytotoxicity control for West Nile virus antiviral project, secondary assay (AID 1650); format: functional; settings: Chlorocebus sabaeus
# [9] = molecular target: T2, Mannose-6-phosphate isomerase (Homo sapiens, UniProt P34949); assay: human PMI inhibitors, high substrate, primary screen, biochemical, fluorescence intensity, high mannose 6-phosphate (AID 1220)
# T2 sequence (P34949 whole entry): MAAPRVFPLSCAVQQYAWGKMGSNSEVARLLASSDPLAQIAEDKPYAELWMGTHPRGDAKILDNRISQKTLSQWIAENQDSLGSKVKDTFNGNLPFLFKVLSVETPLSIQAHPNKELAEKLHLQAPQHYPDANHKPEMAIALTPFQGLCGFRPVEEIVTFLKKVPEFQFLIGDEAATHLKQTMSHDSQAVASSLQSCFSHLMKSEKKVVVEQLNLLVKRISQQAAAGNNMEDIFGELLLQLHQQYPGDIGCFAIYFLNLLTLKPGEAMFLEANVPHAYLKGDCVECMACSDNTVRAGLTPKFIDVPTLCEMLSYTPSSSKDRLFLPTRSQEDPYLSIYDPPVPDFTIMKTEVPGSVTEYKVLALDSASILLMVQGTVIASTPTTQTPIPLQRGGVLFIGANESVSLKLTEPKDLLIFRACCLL
# [10] = LGR2 antagonists, dose response, cell-based, HEK293, CRE-luciferase reporter, cherry pick, set 2 (AID 743343); format: functional;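 also: transfected cells were stimulated with diluted bursicon conditioned medium after compound addition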
# [11] = MC4R antagonists, dose response, counter-screen for LGR2 antagonist project, cell-based, plate reader, cherry pick (AID 743444); format: functional;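 also: transfected HEK 293 cells stimulated with alpha-MSH peptide; potency of inhibitors of the alpha-MSH evoked signal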
# [12] = molecular target: Eukaryotic translation initiation factor 4E (Mus musculus, UniProt P63073); assay: eIF4E–eIF4G protein interaction inhibitors, dose response, biochemical, TR-FRET (AID 855); format: functional;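 also: potency for disrupting eIF4E binding to eIF4GI seen as loss of FRET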
# Chain of Eukaryotic translation initiation factor 4E (P63073 whole entry): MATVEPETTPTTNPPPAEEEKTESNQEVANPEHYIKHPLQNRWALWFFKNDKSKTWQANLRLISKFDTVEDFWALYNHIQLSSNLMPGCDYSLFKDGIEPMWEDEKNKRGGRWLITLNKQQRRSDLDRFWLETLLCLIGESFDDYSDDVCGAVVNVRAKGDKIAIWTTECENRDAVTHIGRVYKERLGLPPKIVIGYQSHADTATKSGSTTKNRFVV
# [13] = molecular target: T3, Low molecular weight phosphotyrosine protein phosphatase (Homo sapiens, UniProt P24666); format: functional; settings: read-out: IC50_Mean;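 also: Dose-response confirmation assay measuring inhibition of LMPTP enzyme activity by fluorescence intensity read-out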
# T3 sequence (P24666 whole entry): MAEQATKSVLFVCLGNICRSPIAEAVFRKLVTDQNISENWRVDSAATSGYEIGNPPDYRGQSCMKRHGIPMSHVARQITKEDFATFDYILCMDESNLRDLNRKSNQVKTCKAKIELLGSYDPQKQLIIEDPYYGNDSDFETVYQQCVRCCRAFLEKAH
# [14] = Luminescence Cell-Based Dose Response HTS to Identify Inhibitors of 5'UTR Stem-Loop Driven Prion Protein mRNA Translation in H4 Neuroglioblastoma Cells. [Related pubchem assays: 1827 (Project Summary), 1813 (Primary HTS)]; format: functional
# [15] = inhibitors of firefly luciferase expression or activity, dose response, H4 neuroglioma cells, luminescence (AID 1990); format: functional, cell-based
# [16] = inhibitors of SNCA 5'UTR-driven reporter translation, confirmation, H4 neuroglioma cells, luminescence (AID 1988); format: functional, cell-based
# [17] = molecular target: T4, Heat shock factor protein 1 (Mus musculus, UniProt P38532); assay: HSF1 potentiators in luciferase reporter cells, confirmation, cell-based, NIH3T3, luminescence, dose retest (AID 435004); format: functional;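 also: stress induced by proteasome inhibitor MG132 added 30 min after compound; luciferase reporter driven by HSF1 response element in NIH3T3 cells; actives raise luminescence as potentiators of the MG132 stress response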
# T4 sequence (P38532 whole entry): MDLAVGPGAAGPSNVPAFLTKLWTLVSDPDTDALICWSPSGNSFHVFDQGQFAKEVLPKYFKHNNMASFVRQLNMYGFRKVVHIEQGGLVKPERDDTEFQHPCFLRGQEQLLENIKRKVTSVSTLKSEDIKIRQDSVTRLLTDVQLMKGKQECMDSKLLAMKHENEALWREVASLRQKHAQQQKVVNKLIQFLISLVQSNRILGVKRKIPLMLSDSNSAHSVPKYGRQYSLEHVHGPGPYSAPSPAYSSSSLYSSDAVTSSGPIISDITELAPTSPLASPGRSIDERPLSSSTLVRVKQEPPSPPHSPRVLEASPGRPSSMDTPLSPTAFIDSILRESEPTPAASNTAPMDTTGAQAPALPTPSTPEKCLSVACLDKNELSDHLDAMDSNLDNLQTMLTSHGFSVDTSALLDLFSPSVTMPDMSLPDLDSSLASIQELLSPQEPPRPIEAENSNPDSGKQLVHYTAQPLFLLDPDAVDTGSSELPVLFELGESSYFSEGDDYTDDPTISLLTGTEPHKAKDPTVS
# [18] = A549 cell cytotoxicity, dose response, cytotoxicity control, plate reader, cherry-pick, antagonist series (AID 743412); format: functional, cell-based
# Genome polyprotein = Genome polyprotein (dengue virus type 2, UniProt P29990); assay: Dengue-2 NS5 methyltransferase inhibitors, primary screen, biochemical, confirmation dose response (AID 588689); format: functional
# Chain of Genome polyprotein (P29990 2492-3391 limits assumed): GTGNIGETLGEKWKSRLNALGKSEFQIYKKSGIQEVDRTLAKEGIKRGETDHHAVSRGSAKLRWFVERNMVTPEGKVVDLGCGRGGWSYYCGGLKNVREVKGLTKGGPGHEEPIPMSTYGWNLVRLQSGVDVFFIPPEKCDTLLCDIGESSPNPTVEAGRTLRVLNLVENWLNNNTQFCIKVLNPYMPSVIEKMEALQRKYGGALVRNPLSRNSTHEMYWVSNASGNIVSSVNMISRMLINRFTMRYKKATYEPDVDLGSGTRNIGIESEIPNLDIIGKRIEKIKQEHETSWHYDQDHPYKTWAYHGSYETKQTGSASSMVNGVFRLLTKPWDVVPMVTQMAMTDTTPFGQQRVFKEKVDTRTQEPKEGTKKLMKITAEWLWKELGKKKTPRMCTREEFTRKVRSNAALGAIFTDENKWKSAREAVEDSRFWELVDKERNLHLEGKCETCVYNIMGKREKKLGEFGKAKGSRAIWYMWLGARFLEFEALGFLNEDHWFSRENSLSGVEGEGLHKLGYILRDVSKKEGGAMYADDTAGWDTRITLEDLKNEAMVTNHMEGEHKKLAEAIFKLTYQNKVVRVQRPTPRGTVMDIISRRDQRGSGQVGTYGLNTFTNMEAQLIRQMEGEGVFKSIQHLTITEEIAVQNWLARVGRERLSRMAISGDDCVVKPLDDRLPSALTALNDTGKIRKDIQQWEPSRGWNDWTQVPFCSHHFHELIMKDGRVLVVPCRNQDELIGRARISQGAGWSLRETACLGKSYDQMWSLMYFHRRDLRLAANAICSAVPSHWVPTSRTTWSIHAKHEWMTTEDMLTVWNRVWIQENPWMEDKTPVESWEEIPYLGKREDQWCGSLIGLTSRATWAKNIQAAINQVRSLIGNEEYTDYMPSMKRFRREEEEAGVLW
# Aminopeptidase N = molecular target: T5, Aminopeptidase N (Plasmodium falciparum FcB1/Columbia, UniProt O96935); assay: P. falciparum M1AAP inhibitors, biochemical, fluorogenic H-Leu-NHMec substrate, 1536-well (AID 1445); parameters: species or system Plasmodium falciparum 3D7, 3D7
# T5 sequence (O96935 whole entry): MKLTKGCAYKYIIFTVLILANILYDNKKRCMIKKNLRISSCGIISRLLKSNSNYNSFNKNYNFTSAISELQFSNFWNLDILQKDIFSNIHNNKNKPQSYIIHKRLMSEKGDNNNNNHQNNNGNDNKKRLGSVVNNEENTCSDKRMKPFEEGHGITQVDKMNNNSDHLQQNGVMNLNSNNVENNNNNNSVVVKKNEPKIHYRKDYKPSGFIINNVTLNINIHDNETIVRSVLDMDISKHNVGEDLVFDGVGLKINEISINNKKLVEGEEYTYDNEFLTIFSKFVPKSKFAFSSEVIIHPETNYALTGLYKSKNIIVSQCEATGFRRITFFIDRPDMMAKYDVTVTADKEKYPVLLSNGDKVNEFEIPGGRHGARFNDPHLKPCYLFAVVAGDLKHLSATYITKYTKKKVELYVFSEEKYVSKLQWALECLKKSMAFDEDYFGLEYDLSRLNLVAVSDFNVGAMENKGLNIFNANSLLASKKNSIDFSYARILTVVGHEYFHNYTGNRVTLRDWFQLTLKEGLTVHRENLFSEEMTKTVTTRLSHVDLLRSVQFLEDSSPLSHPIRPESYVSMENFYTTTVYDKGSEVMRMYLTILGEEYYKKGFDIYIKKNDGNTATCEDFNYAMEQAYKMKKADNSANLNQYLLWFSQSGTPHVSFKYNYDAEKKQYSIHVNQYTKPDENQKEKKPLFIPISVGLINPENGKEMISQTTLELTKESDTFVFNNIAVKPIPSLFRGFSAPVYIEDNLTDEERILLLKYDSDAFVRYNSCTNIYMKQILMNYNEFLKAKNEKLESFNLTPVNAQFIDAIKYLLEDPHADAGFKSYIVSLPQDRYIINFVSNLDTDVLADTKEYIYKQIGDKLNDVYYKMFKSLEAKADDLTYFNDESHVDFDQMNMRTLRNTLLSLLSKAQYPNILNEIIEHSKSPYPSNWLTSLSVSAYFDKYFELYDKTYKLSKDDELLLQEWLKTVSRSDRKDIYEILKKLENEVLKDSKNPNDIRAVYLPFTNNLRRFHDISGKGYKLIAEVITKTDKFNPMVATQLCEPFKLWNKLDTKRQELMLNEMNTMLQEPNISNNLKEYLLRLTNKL
# [19] = molecular target: T6, Rac GTPase-activating protein 1 (Homo sapiens, UniProt Q9H0H5); assay: MgcRacGAP GTPase-activating activity inhibitors, confirmation, biochemical, ADP Hunter fluorescence, primary and confirmatory (AID 624330); format: functional
# T6 sequence (Q9H0H5 whole entry): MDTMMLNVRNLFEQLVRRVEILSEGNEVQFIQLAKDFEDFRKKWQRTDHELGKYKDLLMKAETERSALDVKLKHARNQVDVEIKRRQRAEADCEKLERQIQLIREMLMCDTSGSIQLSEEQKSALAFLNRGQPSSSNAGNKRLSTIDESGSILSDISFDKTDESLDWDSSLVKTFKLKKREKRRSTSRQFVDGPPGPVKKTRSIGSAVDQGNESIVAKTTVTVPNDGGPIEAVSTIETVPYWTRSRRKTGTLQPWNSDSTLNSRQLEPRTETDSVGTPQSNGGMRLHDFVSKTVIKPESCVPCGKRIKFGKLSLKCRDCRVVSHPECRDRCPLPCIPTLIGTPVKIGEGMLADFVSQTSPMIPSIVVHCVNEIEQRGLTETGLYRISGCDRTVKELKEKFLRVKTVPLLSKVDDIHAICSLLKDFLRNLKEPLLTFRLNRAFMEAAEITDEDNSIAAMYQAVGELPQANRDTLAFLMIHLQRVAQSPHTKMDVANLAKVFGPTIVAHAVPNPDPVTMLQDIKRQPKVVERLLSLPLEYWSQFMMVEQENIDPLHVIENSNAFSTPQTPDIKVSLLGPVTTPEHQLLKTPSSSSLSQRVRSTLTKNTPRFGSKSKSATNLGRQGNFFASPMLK
# Large T antigen = Large T antigen (Simian virus 40, UniProt P03070); format: functional, Betapolyomavirus macacae;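 also: Confirmatory-stage PubChem screen for compounds that inhibit SV40 T antigen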
# Chain of Large T antigen (P03070 whole entry): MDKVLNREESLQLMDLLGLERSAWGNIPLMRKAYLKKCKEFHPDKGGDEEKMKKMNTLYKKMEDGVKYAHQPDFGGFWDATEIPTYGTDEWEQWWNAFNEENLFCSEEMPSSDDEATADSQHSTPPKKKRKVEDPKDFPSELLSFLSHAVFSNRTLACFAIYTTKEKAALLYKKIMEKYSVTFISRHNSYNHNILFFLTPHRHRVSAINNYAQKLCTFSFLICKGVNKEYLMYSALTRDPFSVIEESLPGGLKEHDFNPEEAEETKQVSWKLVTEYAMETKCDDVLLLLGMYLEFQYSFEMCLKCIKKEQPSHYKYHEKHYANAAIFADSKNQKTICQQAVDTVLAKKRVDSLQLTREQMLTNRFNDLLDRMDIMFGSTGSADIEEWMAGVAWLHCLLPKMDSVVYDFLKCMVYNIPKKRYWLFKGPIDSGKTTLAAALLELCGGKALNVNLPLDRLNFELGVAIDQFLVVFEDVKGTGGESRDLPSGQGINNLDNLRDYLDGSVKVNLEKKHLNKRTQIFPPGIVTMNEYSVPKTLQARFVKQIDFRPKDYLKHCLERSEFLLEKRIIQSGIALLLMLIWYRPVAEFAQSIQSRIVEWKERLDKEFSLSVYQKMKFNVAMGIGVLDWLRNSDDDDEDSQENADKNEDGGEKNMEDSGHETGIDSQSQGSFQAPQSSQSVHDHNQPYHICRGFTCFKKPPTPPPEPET
compound,measurement,setting,value
CCOC(=O)c1ccc(-c2ccc(/C=N/NC(=O)CN(c3ccccc3Br)S(C)(=O)=O)o2)cc1,EC50,[1],22.5 µM (active)
same,EC50,[2],17.8 µM (active)
same,CC50,[3],> 50 µM (active)
CCNC(=O)Nc1ccc2c(c1)C(=O)N(C)[C@@H]1CC[C@H](CC(=O)NCC3CC3)O[C@@H]1CO2,AC50,[4],0.493 µM (active)
Cn1c(O)cc(=O)nc1SCC(=O)Nc1ccccc1,AC50,Cytochrome P450 2C9,2.82 µM (inconclusive)
same,IC50,Leucine aminopeptidase,17.1 µM (active)
CCCCOc1ccc(C(=O)N/N=C/c2ccc(OCCN3CCCCC3)c(OC)c2)cc1,CC50,[5],18.9 µM (active)
same,CC50,[3],16.1 µM (active)
Cc1nc2c([nH]1)OC(N)=C(C#N)C21CCN(Cc2ccccc2)CC1,IC50,Leucine aminopeptidase,63.2 µM (active)
O=C(c1c[nH]c2ccccc12)C(Cl)c1ccccc1 (stereo not given),AC50,[6],1.74 µM (active)
same,CC50,Vero [7],> 25 µM (active)
same,CC50,Vero [8],66.6 µM (active)
Oc1cc(O)c2sc(Nc3ccc(F)cc3)nc2n1,IC50,[9],> 50 µM (not active)
Cc1nnsc1Sc1cccc(C(F)(F)F)c1,AC50,[4],8.67 µM (active)
COCCn1c(C)cc(C(=O)CSc2nnnn2C2CCCC2)c1C,AC50,[10],3.39 µM (active)
same,AC50,[11],2.78 µM (active)
COc1ccc(/C=C/C(=O)Nc2ccc3c(c2)CCC3)cc1OC,CC50,[3],> 50 µM (active)
CCCCN1C(=O)C2Cc3c([nH]c4ccccc34)CN2C1=S (stereo not given),CC50,[3],20.8 µM (active)
COc1ccc(-c2nc(N3CCOCC3)nc3n[nH]c(N)c23)cc1,IC50,Leucine aminopeptidase,8.11 µM (active)
Nc1nc2c(s1)CCc1c-2cnn1-c1ccccc1,IC50,[12],> 64 µM (inactive)
same,IC50,[9],1.42 µM (active)
Nc1c(C(=O)N/N=C/c2ccc(OCc3ccccc3)cc2)cnn1-c1ccccc1,IC50,[13],25.9 µM (inactive)
same,EC50,[14],21.9 µM (active)
same,EC50,[15],> 120 µM (not active)
same,EC50,[16],11.9 µM (active)
Oc1nc(CSc2ccccn2)nc2c1oc1ccccc12,AC50,[10],5.23 µM (active)
same,EC50,[17],> 260 µM (inconclusive)
same,AC50,[11],6.77 µM (active)
same,AC50,[18],> 52 µM (inactive)
CC1=NOC(=O)/C1=C\c1ccc(-c2ccc(Cl)c(C(=O)O)c2)o1,IC50,Genome polyprotein,15.3 µM (active)
same,IC50,Aminopeptidase N,17.4 µM (active)
same,IC50,[19],141 µM (active)
same,IC50,Large T antigen,14.2 µM (active)
same,IC50,[9],> 50 µM (not active)
C/C=C/c1ccc([C@H]2[C@@H](CO)N(C(=O)C3CC3)[C@H]2CNC(=O)NC(C)C)cc1,AC50,[4],0.558 µM (active)

# From ChEMBL document CHEMBL1201862, “PubChem BioAssay data set” (2004)
